Test results taken from patent US6375927B1, “Methods of radiotherapy using biomodulators” (priority 1991, dated 2002).

Legend:
B-16 melanoma cells [1] = assay: Effect of a biomodulator on the biodistribution of a non-specific agent (I-125 BSA); format: in vivo, mice; details: 2 hours (FIG. 9) and 4 hours (FIG. 10)
Text: The results of biodistribution studies of mice injected with 6×10^5 B-16 melanoma cells 7 days prior to the injection of Tc-99m labeled pokeweed (Tc-99m PWM) and I-125 bovine serum albumin (I-125 BSA) or Tc-99m labeled human serum albumin (Tc-99m HSA) and I-125 bovine serum albumin (I-125 BSA) .

[2] = tested on: xenografts of human teratocarcinoma tumors; assay: Imaging tumors with 99mTc-labeled TNF-α and biomodulators; format: in vivo, Balb/c mice; details: pretreatment 15 hours earlier
Experimental: Balb/c mice bearing xenografts of human teratocarcinoma tumors induced by subcutaneous injections of live tumor cells 8 days previously were injected with 10 μg of Ukrain, pokeweed mitogen or 10K units of interferon. 15 hours later, they were injected i.v. with 10 μCi of ^99mTc-labeled TNF-α labeled using the ascorbic acid reduction method of M. L. Thakur. M. L. Thakur et al., “Tc-99m Labeled Monoclonal Antibodies: Evaluation of Reducing Agents,” Internat. J. Nucl. Med. Biol. 18, 227-233 (1991). M. L. Thakur et al., “Tc-99m Labeled Monoclonal Antibodies for Immunoscintigraphy: Simplified Preparation and Evaluation,” J. Immunol. Methods 137, 217-225 (1991). Mice were imaged at 1.5, 4 and 24 hours post injection of the ^99m-labeled TNF-α and sacrificed for tissue distribution studies.

canine glioma tumors = assay: NMR imaging of tumor using pokeweed mitogen; effect on T1; format: in vivo, nude rats
Experimental: Three nude rats were implanted with canine glioma tumors in their left flank. […] NMR imaging was performed as above at 4 hours post injection.

B-16 melanoma cells [3] = assay: Tissue localization of otherwise non-specific imaging agent (Tc-99m HSA) after pokeweed mitogen; format: in vivo, mouse; details: 10 μg pokeweed mitogen four hours before 99mTc-HSA
Experimental: A mouse ([…]) was injected with B-16 melanoma cells in accordance with Example 1. 7 days later, 10 μg of pokeweed mitogen was injected into the mouse. Four hours later ^99mTc-human serum albumin (HSA) was injected. The resultant posterior gamma camera image is obtained of the tumor grown in the mouse. Comparison with the control image.

[4] = 4 and 24 hours post injection of TNF-α
[5] = 1.5 hours post injection of TNF-α
[6] = treatment with unlabeled PWM, FIG. 6

I-125 BSA: I-125 bovine serum albumin, non-specific agent
distribution of I-125 BSA depending on co-injected agent (Tc-99m PWM or Tc-99m HSA) (B-16 melanoma cells [1]): significant differences

interferon
tumor to muscle ratios of radioisotope uptake (99mTc-labeled TNF-α) compared to mice not receiving biomodulators or interferon [2, 4]: not at 4 and 24 hours | tumor to muscle ratios of radioisotope uptake (99mTc-labeled TNF-α) compared to mice not receiving biomodulators or interferon [2, 5]: enhanced

pokeweed mitogen
Visualization of the tumors (NMR imaging) (canine glioma tumors; 4 hours post injection, 7 days post-implantation): observed as bright areas | effect on T1 of the treated tissue image (canine glioma tumors; NMR image, 4 hours post injection): lowers T1 | T1 measured on the tumor (canine glioma tumors; [6]): enhanced tenfold | T1 of normal muscle tissue (canine glioma tumors; [6]): remained at baseline levels | gamma camera image of tumor with 99mTc-HSA versus control image without pokeweed mitogen (B-16 melanoma cells [3]): significant image enhancement | tumor to muscle ratios of radioisotope uptake (99mTc-labeled TNF-α) compared to mice not receiving biomodulators or interferon [2, 4]: not at 4 and 24 hours | tumor to muscle ratios of radioisotope uptake (99mTc-labeled TNF-α) compared to mice not receiving biomodulators or interferon [2, 5]: enhanced
